In patent publication US20250230173A1, “SALT FORMS OF AN AXL INHIBITOR” (Arcus Biosciences, Inc., priority 2023, published 2025):
Entries after “also recorded” stand apart in the source; their conditions may differ.

Experiments:
Assay type in all cases: physicochemical
[1] = Long term and accelerated stability of 2-Napsylate Form I; conditions: for Changes on storage: as of 3 months
Method: Samples of 2-Napsylate Form I were further tested for long term and accelerated stability. Samples of the compound are stored at conditions of either 2-8° C. (long term) or 25° C. and 60% RH (accelerated). Stability samples are packaged in double low-density polyethylene (LDPE) bags in a high-density polyethylene (HDPE) outer container.
Samples are tested for appearance, assay, chemical purity, water content, microbial limits, and crystallinity.

[2] = Storage at 40° C. and 75% RH for one week (XRPD)
Method: The stability of 2-Napsylate Form I was compared with the stability of 2-[…] Form VI when stored at 40° C. and 75% RH for a period of one week.

[3] = Stability study of selected solid forms, XRPD after 7 days of storage
Description: XRPD diffractograms were collected with a Bruker, D2 Phaser or Panalytical Empyrean X-ray diffractometer. Diffractograms can be read by one of skill in the art, for example, to determine if a chemical sample is the substantially the same, different, or represents a mixture of forms. When a diffractogram is “substantially in accordance” as another diffractogram, a person of skill in the art would regard the samples resulting in the two diffractograms as the same form or same mixture of forms, taking into account minor variations for instrumentation, conditions, and the like.
A stability study comparing amorphous freebase Compound I, Freebase Form II, 2-Napsylate Form I, Fumarate Form I, Succinate Form I, and Camsylate Form I was conducted. HPLC measurements were taken after 7 days of storage at the indicated conditions.

[4] = Stability of 2-Napsylate Form I under variable humidity (XRPD); conditions: RH 10% to 90% at 25° C., every 10% RH, 4 hr equilibration at each step
Method: 2-Napsylate Form I was used to test form changes as a function of RH from 10% to 90% at 25° C. The XRPD data was collected every 10% RH (FIG. 20) with an equilibration time of 4 hr at each step.

[5] = Stability study of selected solid forms, HPLC purity after 7 days of storage
[6] = Hygroscopicity by DVS, XRPD before and after; conditions: two DVS cycles, 0-90% RH
Method: Hygroscopicity of 2-Napsylate Forms I and VI were assessed using DVS. Samples of 2-Napyslate Form I and Form VI (7-20 mg) were placed separately into a tared sample chamber and automatically weighed.

[7] = Form conversion of 2-Napsylate crystalline forms on vacuum drying or in slurry (XRPD); conditions: slurry at 50° C., ACN/DMSO (11:1), after 20 days

## Cc1cccnc1-c1ccc(-c2n[nH]c3ncc(-c4ccc5c(c4)CC[C@@H](N4C6COCC4C6)CC5)cc23)nc1 [2-Napsylate Form I]
[1]; 2-8° C., 1 month
  Assay ‘anhydrous and solvent-free basis’ (% w/w): 96.9 % w/w
  Crystallinity: Crystalline
  Total impurity (% a/a): 1.7 % a/a
  Water content (% w/w): 1.2 % w/w
[1]; 2-8° C., 3 months
  Assay ‘anhydrous and solvent-free basis’ (% w/w): 96.1 % w/w
  Crystallinity: Crystalline
  Total impurity (% a/a): 1.7 % a/a
  Water content (% w/w): 1.8 % w/w
[1]; 2-8° C., 6 months
  Assay ‘anhydrous and solvent-free basis’ (% w/w): 97.7 % w/w
  Crystallinity: Crystalline
  Total impurity (% a/a): 1.4 % a/a
  Water content (% w/w): 2.1 % w/w
[1]; 2-8° C., Initial
  Assay ‘anhydrous and solvent-free basis’ (% w/w): 95.8 % w/w
  Crystallinity: Crystalline
  Total impurity (% a/a): 1.5 % a/a
  Water content (% w/w): 0.87 % w/w
[1]; 25° C. and 60% RH, 1 month
  Assay ‘anhydrous and solvent-free basis’ (% w/w): 96.8 % w/w
  Total impurity (% a/a): 1.8 % a/a
  Water content (% w/w): 1.2 % w/w
[1]; 25° C. and 60% RH, 3 months
  Assay ‘anhydrous and solvent-free basis’ (% w/w): 95.2 % w/w
  Total impurity (% a/a): 1.8 % a/a
  Water content (% w/w): 1.6 % w/w
[1]; 25° C. and 60% RH, 6 months
  Assay ‘anhydrous and solvent-free basis’ (% w/w): 96.2 % w/w
  Total impurity (% a/a): 1.6 % a/a
  Water content (% w/w): 2.1 % w/w
[1]; 25° C. and 60% RH, Initial
  Assay ‘anhydrous and solvent-free basis’ (% w/w): 95.8 % w/w
  Total impurity (% a/a): 1.5 % a/a
  Water content (% w/w): 0.87 % w/w
[1]; accelerated (25° C. and 60% RH)
  Changes on storage: no significant changes
[1]; long term (2-8° C.)
  Changes on storage: no significant changes
[2]
  Stability on storage (XRPD): stable
[3]; 7 days, 25° C.
  XRPD (solid form): Form I
[3]; 7 days, 40° C. / 75% RH
  XRPD (solid form): Form I
[3]; 7 days, 60° C.
  XRPD (solid form): Form I
[3]; T0
  XRPD (solid form): Form I
[4]
  Form change as a function of RH (XRPD): No form change was observed
[5]; 7 days, 25° C.
  HPLC Purity (A %): 99.82 A %
[5]; 7 days, 40° C. / 75% RH
  HPLC Purity (A %): 99.35 A %
[5]; 7 days, 60° C.
  HPLC Purity (A %): 99.21 A %
[5]; Example 6 stability study
  Chemical and physical stability compared to the other forms tested: better chemical and physical stability; also recorded: improved chemical and physical stability
[5]; T0
  HPLC Purity (A %): 99.82 A %
[6]
  Form change after DVS testing (XRPD): no form change
[7]
  Crystal form after prolonged slurry: Form IV + extra XRPD
